Results reported in ChEMBL document CHEMBL4507273 (2021).

What was measured:
[1] = test system: Mast/stem cell growth factor receptor Kit (Homo sapiens), P10721 [L576P]; conditions: Compound concentration 1000.0 nM
[2] = biological target: Epidermal growth factor receptor (Homo sapiens, UniProt P00533); experiment: EGFR kinase inhibition assay
[3] = biological target: Myotonin-protein kinase (Homo sapiens) (UniProt Q09013); conditions: Compound concentration 1000.0 nM
[4] = test system: Mast/stem cell growth factor receptor Kit (Homo sapiens), P10721 [V559D]; conditions: Compound concentration 1000.0 nM
[5] = biological target: T1, 5-hydroxytryptamine receptor 2C (Homo sapiens) (UniProt P28335); conditions: Compound concentration 10.0 uM
T1 sequence (whole entry): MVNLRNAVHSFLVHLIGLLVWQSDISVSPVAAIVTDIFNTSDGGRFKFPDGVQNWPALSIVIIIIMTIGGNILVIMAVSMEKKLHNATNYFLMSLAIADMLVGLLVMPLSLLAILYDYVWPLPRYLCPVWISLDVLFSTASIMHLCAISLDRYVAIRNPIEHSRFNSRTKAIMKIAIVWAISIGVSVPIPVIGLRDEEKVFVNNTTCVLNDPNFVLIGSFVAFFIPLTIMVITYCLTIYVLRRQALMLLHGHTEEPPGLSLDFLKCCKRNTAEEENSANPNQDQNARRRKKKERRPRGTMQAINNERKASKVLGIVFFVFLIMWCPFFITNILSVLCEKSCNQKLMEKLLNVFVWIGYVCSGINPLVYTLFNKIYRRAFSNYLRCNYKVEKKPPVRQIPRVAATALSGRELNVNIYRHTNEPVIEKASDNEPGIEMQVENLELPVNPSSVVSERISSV

Rattus norvegicus = species on record: Rattus norvegicus; conditions: Compound concentration 10.0 uM
[6] = test system: Mast/stem cell growth factor receptor Kit (Homo sapiens), P10721 [D816V]; conditions: Compound concentration 1000.0 nM
[7] = test system: Phosphatidylinositol 4,5-bisphosphate 3-kinase catalytic subunit alpha isoform (Homo sapiens), P42336 [M1043I]; conditions: Compound concentration 1000.0 nM
D(3) dopamine receptor = D(3) dopamine receptor (Homo sapiens, UniProt P35462); conditions: Compound concentration 10.0 uM
[8] = biological target: Tyrosine-protein kinase SYK (Homo sapiens) (UniProt P43405); experiment: Syk(h) Eurofins Kinase panel; conditions: Compound concentration 1.0 uM
[9] = biological target: Tyrosine-protein kinase ITK/TSK (Homo sapiens) (UniProt Q08881); conditions: Compound concentration 1000.0 nM
[10] = biological target: Calcium/calmodulin-dependent protein kinase kinase 2 (Homo sapiens) (UniProt Q96RR4); conditions: Compound concentration 1000.0 nM
[11] = test system: Proto-oncogene tyrosine-protein kinase receptor Ret (Homo sapiens), P07949 [V804M]; conditions: Compound concentration 1000.0 nM
[12] = biological target: Dual serine/threonine and tyrosine protein kinase (Homo sapiens) (UniProt Q6XUX3); conditions: Compound concentration 1000.0 nM
[13] = biological target: 5-hydroxytryptamine receptor 2B (Homo sapiens, UniProt P41595); conditions: Compound concentration 10.0 uM
[14] = biological target: BDNF/NT-3 growth factors receptor (Homo sapiens) (UniProt Q16620); conditions: Compound concentration 1000.0 nM
[15] = biological target: Myosin light chain kinase family member 4 (Homo sapiens) (UniProt Q86YV6); conditions: Compound concentration 1000.0 nM
D(4) dopamine receptor = D(4) dopamine receptor (Homo sapiens, UniProt P21917); experiment: GPCRScan assay: inhibition of D4; parameters: radioligand conc. used [nm] 0.6 – 1.7, parental cells Stable HEK
[16] = test system: Proto-oncogene tyrosine-protein kinase receptor Ret (Homo sapiens), P07949 [M918T]; conditions: Compound concentration 1000.0 nM
[17] = biological target: Tyrosine-protein kinase HCK (Homo sapiens) (UniProt P08631); conditions: Compound concentration 1000.0 nM
[18] = biological target: Serine/threonine-protein kinase TNNI3K (Homo sapiens) (UniProt Q59H18); conditions: Compound concentration 1000.0 nM
[19] = test system: Tyrosine-protein kinase ABL1 (Homo sapiens), P00519 [F317I]; conditions: Compound concentration 1000.0 nM
[20] = biological target: Dual specificity tyrosine-phosphorylation-regulated kinase 1A (Homo sapiens) (UniProt Q13627); experiment: DYRK1A(h) Eurofins Kinase panel; conditions: Compound concentration 1.0 uM
[21] = biological target: Ephrin type-B receptor 1 (Homo sapiens) (UniProt P54762); conditions: Compound concentration 1000.0 nM
[22] = test system: Receptor-type tyrosine-protein kinase FLT3 (Homo sapiens), P36888 [D835Y]; conditions: Compound concentration 1000.0 nM
[23] = biological target: Muscarinic acetylcholine receptor M5 (Homo sapiens) (UniProt P08912); conditions: Compound concentration 10.0 uM
[24] = test system: Tyrosine-protein kinase ABL1 (Homo sapiens), P00519 [M351T]; conditions: Compound concentration 1000.0 nM
[25] = biological target: Hepatocyte growth factor receptor (Homo sapiens) (UniProt P08581); conditions: Compound concentration 1000.0 nM
[26] = biological target: Serine/threonine-protein kinase PAK 1 (Homo sapiens) (UniProt Q13153); conditions: Compound concentration 1000.0 nM
D(2) dopamine receptor = D(2) dopamine receptor (Homo sapiens, UniProt P14416); conditions: Compound concentration 10.0 uM
[27] = biological target: Proto-oncogene tyrosine-protein kinase receptor Ret (Homo sapiens) (UniProt P07949); experiment: Ret(h) Eurofins Kinase panel; conditions: Compound concentration 1.0 uM
[28] = biological target: Bone morphogenetic protein receptor type-1B (Homo sapiens) (UniProt O00238); conditions: Compound concentration 1000.0 nM
[29] = biological target: Ribosomal protein S6 kinase alpha-3 (Homo sapiens) (UniProt P51812); conditions: Compound concentration 1000.0 nM
[30] = biological target: Serine/threonine-protein kinase 33 (Homo sapiens) (UniProt Q9BYT3); conditions: Compound concentration 1000.0 nM
[31] = biological target: Serine/threonine-protein kinase PAK 3 (Homo sapiens) (UniProt O75914); conditions: Compound concentration 1000.0 nM
[32] = biological target: Tyrosine-protein kinase Blk (Homo sapiens) (UniProt P51451); conditions: Compound concentration 1000.0 nM
[33] = test system: Epidermal growth factor receptor (Homo sapiens), P00533 [G719C]; conditions: Compound concentration 1000.0 nM
[34] = biological target: Kappa-type opioid receptor (Homo sapiens, UniProt P41145); experiment: GPCRScan assay: inhibition of KOR; parameters: radioligand conc. used [nm] 0.6 – 1.2, parental cells stable HEK

Chain of Mast/stem cell growth factor receptor Kit (Homo sapiens), P10721 [V559D] (P10721 whole entry V559D): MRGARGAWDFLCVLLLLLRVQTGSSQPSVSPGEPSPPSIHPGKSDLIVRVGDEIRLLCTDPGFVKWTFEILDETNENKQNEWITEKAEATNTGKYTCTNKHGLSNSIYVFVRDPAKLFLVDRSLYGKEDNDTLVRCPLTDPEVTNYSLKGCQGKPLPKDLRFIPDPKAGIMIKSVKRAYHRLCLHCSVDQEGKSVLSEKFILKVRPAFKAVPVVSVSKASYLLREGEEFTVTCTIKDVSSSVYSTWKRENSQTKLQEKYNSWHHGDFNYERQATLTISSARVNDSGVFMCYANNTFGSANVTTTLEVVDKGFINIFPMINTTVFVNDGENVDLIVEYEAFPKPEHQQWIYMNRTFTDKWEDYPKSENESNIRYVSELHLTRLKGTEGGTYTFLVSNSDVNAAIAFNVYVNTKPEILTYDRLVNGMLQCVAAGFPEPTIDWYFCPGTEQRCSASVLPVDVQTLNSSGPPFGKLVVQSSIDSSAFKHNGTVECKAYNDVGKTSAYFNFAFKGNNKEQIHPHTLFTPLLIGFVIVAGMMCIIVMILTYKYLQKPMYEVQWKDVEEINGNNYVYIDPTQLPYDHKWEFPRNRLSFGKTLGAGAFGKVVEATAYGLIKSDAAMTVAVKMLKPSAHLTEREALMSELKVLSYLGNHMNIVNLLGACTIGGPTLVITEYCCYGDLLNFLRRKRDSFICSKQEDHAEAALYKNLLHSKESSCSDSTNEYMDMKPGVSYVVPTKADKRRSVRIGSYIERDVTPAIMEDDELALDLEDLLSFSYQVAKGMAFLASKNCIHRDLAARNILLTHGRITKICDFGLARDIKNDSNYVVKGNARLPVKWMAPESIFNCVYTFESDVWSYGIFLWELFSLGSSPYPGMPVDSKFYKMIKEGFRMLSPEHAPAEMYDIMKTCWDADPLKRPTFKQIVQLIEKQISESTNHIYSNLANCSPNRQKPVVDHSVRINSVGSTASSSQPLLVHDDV
Chain of Hepatocyte growth factor receptor (Homo sapiens) (P08581 whole entry): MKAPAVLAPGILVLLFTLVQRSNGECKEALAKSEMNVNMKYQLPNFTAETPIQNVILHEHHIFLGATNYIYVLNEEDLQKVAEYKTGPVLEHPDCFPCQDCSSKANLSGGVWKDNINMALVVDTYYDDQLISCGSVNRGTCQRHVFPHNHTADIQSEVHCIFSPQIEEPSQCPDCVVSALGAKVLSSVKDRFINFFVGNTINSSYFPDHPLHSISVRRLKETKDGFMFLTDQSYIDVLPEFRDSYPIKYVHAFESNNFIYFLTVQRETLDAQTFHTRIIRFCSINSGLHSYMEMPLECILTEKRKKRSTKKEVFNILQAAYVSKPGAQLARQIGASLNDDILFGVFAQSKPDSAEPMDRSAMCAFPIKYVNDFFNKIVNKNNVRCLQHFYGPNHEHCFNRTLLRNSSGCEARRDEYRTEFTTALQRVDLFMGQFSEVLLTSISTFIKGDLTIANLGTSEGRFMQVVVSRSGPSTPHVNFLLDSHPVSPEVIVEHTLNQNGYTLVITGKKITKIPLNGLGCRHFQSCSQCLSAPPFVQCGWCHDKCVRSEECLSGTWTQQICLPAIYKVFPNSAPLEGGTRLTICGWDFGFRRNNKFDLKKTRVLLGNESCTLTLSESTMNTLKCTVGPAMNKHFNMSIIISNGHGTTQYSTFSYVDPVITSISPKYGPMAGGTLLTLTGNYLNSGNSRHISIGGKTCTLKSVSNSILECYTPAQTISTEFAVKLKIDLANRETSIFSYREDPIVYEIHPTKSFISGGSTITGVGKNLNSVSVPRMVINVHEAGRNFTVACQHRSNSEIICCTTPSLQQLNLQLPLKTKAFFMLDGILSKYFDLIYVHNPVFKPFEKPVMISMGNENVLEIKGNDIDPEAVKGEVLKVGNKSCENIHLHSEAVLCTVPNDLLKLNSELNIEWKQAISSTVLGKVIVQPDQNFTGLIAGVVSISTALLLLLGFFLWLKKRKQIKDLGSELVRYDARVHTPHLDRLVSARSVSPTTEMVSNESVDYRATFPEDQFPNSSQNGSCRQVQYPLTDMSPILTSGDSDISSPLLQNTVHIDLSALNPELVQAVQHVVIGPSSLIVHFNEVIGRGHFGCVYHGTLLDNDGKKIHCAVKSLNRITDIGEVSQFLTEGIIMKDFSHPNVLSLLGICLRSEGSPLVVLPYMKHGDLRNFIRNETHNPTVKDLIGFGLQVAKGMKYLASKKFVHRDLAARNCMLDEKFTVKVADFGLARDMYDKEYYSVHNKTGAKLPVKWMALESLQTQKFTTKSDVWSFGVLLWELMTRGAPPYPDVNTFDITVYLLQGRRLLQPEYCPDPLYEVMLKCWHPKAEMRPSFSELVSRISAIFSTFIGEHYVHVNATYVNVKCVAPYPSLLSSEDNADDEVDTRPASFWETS
Chain of Tyrosine-protein kinase Blk (Homo sapiens) (P51451 2-505 limits assumed): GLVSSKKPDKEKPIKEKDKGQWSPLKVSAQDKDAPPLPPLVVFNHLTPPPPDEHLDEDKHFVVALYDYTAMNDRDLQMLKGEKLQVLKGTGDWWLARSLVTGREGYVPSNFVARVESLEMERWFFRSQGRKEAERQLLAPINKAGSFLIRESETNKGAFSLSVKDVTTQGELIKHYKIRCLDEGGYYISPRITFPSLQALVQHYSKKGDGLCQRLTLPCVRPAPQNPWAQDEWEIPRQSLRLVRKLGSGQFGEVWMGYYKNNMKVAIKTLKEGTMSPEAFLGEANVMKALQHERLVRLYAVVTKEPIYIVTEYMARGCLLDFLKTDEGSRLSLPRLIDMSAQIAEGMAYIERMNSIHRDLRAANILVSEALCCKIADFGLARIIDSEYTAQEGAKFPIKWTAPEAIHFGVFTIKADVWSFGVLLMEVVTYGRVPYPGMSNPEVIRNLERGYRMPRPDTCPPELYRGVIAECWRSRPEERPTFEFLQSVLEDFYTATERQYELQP
Chain of Serine/threonine-protein kinase 33 (Homo sapiens) (Q9BYT3 whole entry, looked up): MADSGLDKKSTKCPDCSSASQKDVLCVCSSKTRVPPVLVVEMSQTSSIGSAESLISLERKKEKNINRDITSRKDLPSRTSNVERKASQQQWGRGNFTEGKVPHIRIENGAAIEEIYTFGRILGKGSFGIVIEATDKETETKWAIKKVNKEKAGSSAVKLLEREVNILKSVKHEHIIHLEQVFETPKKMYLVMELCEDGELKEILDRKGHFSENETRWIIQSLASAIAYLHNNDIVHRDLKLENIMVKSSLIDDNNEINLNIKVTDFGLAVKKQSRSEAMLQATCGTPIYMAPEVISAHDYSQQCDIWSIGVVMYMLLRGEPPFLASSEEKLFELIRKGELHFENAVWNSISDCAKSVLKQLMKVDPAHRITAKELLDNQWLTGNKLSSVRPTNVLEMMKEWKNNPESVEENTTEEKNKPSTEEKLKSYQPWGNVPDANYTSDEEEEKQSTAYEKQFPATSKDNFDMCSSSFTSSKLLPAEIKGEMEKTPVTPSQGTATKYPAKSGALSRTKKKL
Chain of Muscarinic acetylcholine receptor M5 (Homo sapiens) (P08912 whole entry): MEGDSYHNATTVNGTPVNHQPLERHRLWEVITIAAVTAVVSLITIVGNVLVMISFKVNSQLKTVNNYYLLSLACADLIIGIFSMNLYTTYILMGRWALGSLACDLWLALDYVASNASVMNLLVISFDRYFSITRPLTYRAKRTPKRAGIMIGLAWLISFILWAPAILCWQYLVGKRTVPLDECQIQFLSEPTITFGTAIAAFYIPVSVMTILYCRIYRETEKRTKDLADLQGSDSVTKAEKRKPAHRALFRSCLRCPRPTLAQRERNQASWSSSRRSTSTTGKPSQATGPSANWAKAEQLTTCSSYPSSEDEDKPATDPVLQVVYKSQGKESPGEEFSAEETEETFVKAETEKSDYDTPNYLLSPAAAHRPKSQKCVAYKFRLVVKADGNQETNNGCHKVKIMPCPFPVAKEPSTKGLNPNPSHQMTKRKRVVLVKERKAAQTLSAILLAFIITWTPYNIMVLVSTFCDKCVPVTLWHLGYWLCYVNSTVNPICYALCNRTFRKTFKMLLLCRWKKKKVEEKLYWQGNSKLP
Chain of Ribosomal protein S6 kinase alpha-3 (Homo sapiens) (P51812 whole entry): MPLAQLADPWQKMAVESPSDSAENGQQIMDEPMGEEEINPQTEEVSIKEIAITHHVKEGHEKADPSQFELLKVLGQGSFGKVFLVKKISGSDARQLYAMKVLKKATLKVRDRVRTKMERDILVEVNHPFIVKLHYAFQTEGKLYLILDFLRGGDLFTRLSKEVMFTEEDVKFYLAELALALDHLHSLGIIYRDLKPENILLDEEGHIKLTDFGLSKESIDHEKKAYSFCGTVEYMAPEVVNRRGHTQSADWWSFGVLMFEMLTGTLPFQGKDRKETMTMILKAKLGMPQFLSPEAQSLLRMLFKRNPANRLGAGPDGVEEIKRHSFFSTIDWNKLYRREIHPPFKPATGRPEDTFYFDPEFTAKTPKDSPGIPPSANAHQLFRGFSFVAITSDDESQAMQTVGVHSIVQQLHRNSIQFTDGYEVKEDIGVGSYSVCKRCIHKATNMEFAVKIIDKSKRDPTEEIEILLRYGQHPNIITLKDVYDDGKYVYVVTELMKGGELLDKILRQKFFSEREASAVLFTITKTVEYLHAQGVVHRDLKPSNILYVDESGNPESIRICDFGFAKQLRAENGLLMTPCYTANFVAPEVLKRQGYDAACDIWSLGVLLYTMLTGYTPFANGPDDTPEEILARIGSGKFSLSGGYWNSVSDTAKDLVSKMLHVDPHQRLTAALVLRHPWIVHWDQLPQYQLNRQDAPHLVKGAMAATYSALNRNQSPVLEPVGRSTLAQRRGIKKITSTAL
Chain of Myosin light chain kinase family member 4 (Homo sapiens) (Q86YV6 whole entry): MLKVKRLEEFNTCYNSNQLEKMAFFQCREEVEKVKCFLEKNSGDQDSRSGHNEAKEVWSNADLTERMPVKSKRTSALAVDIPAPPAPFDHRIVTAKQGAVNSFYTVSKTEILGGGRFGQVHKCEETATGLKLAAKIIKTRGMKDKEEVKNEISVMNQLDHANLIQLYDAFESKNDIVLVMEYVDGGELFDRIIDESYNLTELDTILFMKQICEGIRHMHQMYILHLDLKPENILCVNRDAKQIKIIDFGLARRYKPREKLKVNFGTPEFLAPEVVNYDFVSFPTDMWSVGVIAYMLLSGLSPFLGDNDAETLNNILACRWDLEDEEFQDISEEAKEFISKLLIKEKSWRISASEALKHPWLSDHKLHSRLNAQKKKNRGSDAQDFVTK

Row | Structure (SMILES) | residual activity [1] [%] | IC50 [2] | residual activity [3] [%] | residual activity [4] [%] | residual activity [6] [%] | residual activity [7] [%] | residual activity [9] [%] | residual activity [10] [%] | residual activity [11] [%] | residual activity [12] [%] | residual activity [14] [%] | residual activity [15] [%] | residual activity [16] [%] | residual activity [17] [%] | residual activity [18] [%] | residual activity [19] [%] | residual activity [21] [%] | residual activity [22] [%] | inhibition [23] [%] | residual activity [24] [%] | further results
1 | CNCc1ccccc1-c1csc([C@@H](C)Nc2nc(C)nc3cc(OC)c(OC)cc23)c1 [BAY-293] | 92 | > 20 µM (not active) | 86 | 100 | 81 | 56 | 100 | 100 | 90 | 83 | 88 | 99 | 70 | 97 | 100 | 100 | 100 | 84 | 64.8 | 74 | inhibition [5]: 104%; inhibition (Rattus norvegicus): 13.1%; inhibition (D(3) dopamine receptor): 88%; % residual kinase activity [8]: 79%; inhibition [13]: 100%; Ki (D(4) dopamine receptor; read-out: Ki): 2660 nM; Ki (D(4) dopamine receptor; read-out: pKi (converted)): 2630 nM; % residual kinase activity [20]: 68%; residual activity [25]: 95%; residual activity [26]: 97%; inhibition (D(2) dopamine receptor): 67%; % residual kinase activity [27]: 81%; residual activity [28]: 83%; residual activity [29]: 80%; residual activity [30]: 45%; residual activity [31]: 86%; residual activity [32]: 91%; residual activity [33]: 63%
2 | CNCc1ccccc1-c1csc([C@H](C)Nc2nc(C)nc3cc(OC)c(OC)cc23)c1 [BAY-294] | 100 | > 20 µM (not active) | 85 | 100 | 100 | 100 | 100 | 82 | 100 | 78 | 98 | 100 | 99 | 98 | 100 | 100 | 100 | 100 | 54.1 | 85 | Ki ([34]; read-out: Ki): 841 nM; Ki ([34]; read-out: pKi (converted)): 822 nM; residual activity [25]: 100%; residual activity [26]: 99%; residual activity [28]: 100%; residual activity [29]: 100%; residual activity [30]: 73%; residual activity [31]: 87%; residual activity [32]: 94%; residual activity [33]: 85%
